These results are taken from ChEMBL document CHEMBL1133206, “Antifungal rapamycin analogues with reduced immunosuppressive activity” (Bioorg Med Chem Lett, 2000).

For one assay, the species on record is Homo sapiens. Kind of assay: Inhibitory activity against human concanavalin-A proliferation assay. The format is functional.
The test system of assay [1] is Candida albicans. In words: In vitro antifungal activity against Candida albicans (CA 10231). The format is functional.
Assay [2] has as its target Peptidyl-prolyl cis-trans isomerase FKBP1A (Homo sapiens, UniProt P62942). Kind of assay: The compound was tested for binding affinity to FK506 binding protein 12 using Rapamycin as control, with an ascomycin conjugate of alkaline phosphatase in a competition binding assay.
The test system of assay [3] is Candida albicans. In words: In vitro for antifungal activity against Candida albicans (CA 579a). In kind it is functional.
The next assay has as its system Candida tropicalis. In words: In vitro antifungal activity against Candida tropicalis (CT 750). In kind it is functional.
In another assay the test system is Pichia kudriavzevii. In words: In vitro antifungal activity against Candida krusei (CK 28838). In kind it is functional.
For assay [4], the system named is Candida albicans. In words: In vitro antifungal activity against […] (CA 34140); Not affected. In kind it is functional.
Assay [5] concerns Candida albicans. Kind of assay: In vitro antifungal activity against Candida albicans (CA 38247); Weak. In kind it is functional, organism-based.
Assay [6] relates to Candida albicans. Kind of assay: In vitro antifungal activity against Candida albicans (CA 442); Weak. The format is functional, organism-based.
Assay [7] concerns Aspergillus niger. Kind of assay: In vitro antifungal activity at a minimum inhibitory concentration (~100 ug/mL) against Aspergillus niger; Not affected. The format is functional. The following applies: Aspergillus niger; read-out: MIC.
In assay [8] the test system is Candida albicans. In words: In vitro antifungal activity against Candida albicans (CA 62376); Weak. In kind it is functional, organism-based.
In another assay the test system is Nakaseomyces glabratus. Kind of assay: In vitro antifungal activity against Torulopsis glabrata (TG 15545). The format is functional.
Assay [9] has as its system Candida albicans. Kind of assay: Compound was screened in vitro for antifungal activity against Candida albicans (CA 442). The format is functional.
Assay [10] relates to Candida albicans. Kind of assay: Compound was screened in vitro for antifungal activity against Candida albicans (CA 38247). The format is functional.
Assay [11] concerns Candida albicans. Kind of assay: Compound was screened in vitro for antifungal activity against Candida albicans (CA 62376). The format is functional.
Assay [12] deals with Candida albicans. Kind of assay: Compound was screened in vitro for antifungal activity against Candida albicans (CA 442); weak. In kind it is functional, organism-based.
Assay [13] concerns Candida albicans. Kind of assay: Compound was screened in vitro for antifungal activity against Candida albicans (CA 38247); weak. In kind it is functional, organism-based.
Assay [14] has as its system Candida albicans. In words: Compound was screened in vitro for antifungal activity at a minimum inhibitory concentration (~100 ug/mL) against […] (CA 34140); not affected. The format is functional.
The subject of assay [15] is Aspergillus niger. In words: Compound was screened in vitro for antifungal activity at a minimum inhibitory concentration (~100 ug/mL) against Aspergillus niger; not affected. In kind it is functional.
The subject of assay [16] is Candida albicans. In words: Compound was screened in vitro for antifungal activity against Candida albicans (CA 62376); weak. In kind it is functional, organism-based.

SMILES strings stand for the structures. ≈ marks a conversion by molar mass, not a printed value.

The term IC50 denotes the concentration at which inhibition is half-maximal. In general, MIC refers to the lowest concentration that inhibits growth of the organism.

Sequence of Peptidyl-prolyl cis-trans isomerase FKBP1A (P62942 whole entry): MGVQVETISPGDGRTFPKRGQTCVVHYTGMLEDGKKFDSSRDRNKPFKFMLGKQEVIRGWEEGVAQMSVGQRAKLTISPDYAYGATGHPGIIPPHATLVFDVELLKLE

Take `CO[C@H]1C[C@@H]2CC[C@@H](C)[C@@](O)(O2)C(=O)C(=O)N2CCCC[C@H]2C(=O)O[C@H]([C@H](C)C[C@@H]2CC[C@@H](OC(=O)N(C)OC)[C@H](OC)C2)CC(=O)[C@H](C)/C=C(\C)[C@@H](O)[C@@H](OC)C(=O)[C@H](C)C[C@H](C)CCCC/C=C/1C`: the IC50 was 2470 nM in the assay listed under Homo sapiens and > 1000 nM in assay [2]. The MIC was 50 µg/mL (≈ 49.7 µM) in the assay on Candida albicans [1], > 100 µg/mL against Candida albicans [3], > 100 µg/mL in the assay on Candida tropicalis and > 100 µg/mL against Pichia kudriavzevii.

Consider `CO[C@@H]1C[C@H](C[C@@H](C)[C@@H]2CC(=O)[C@H](C)/C=C(\C)[C@@H](O)[C@@H](OC)C(=O)[C@H](C)C[C@H](C)/C=C/C=C/C=C(\C)[C@H](O)C[C@@H]3CC[C@@H](C)[C@@](O)(O3)C(=O)C(=O)N3CCCC[C@H]3C(=O)O2)CC[C@H]1O`, for which the IC50 was determined as 6.3 nM in the assay filed under Homo sapiens and 14 nM in assay [2]. For the same compound, the MIC with Candida albicans [1] was 1.56 µg/mL (≈ 1.73 µM); in the assay with Candida albicans [3] it was 3.12 µg/mL (≈ 3.47 µM); against Candida albicans [4] it was ~100 µg/mL (≈ 111 µM); with Candida albicans [5], “Weak”; in the assay with Candida albicans [6], “Weak”; against Candida tropicalis, 1.56 µg/mL (≈ 1.73 µM). For the same compound, the MIC was ~100 µg/mL (≈ 111 µM) in the assay on Aspergillus niger [7], “Weak” in the assay with Candida albicans [8], 0.78 µg/mL (≈ 0.867 µM) in the assay with Nakaseomyces glabratus and 0.78 µg/mL (≈ 0.867 µM) in the assay on Pichia kudriavzevii.

Take `CO[C@H]1C[C@@H]2CC[C@@H](C)[C@@](O)(O2)C(=O)C(=O)N2CCCC[C@H]2C(=O)O[C@H]([C@H](C)C[C@@H]2CC[C@H](n3cnnn3)[C@H](OC)C2)CC(=O)[C@H](C)/C=C(\C)[C@@H](O)[C@@H](OC)C(=O)[C@H](C)C[C@H](C)CCCC/C=C/1C`: the minimal inhibitory concentration (MIC) with Candida albicans [1], against Candida albicans [9], against Candida albicans [10], in the assay on Candida albicans [3], against Candida albicans [11] and against Candida tropicalis was > 100 µg/mL each time. Also, the MIC with Pichia kudriavzevii was > 100 µg/mL.

In the assay listed under Homo sapiens, `COC(=O)N[C@@H]1C[C@@H]2CC[C@@H](C)[C@@](O)(O2)C(=O)C(=O)N2CCCC[C@H]2C(=O)O[C@H]([C@H](C)C[C@@H]2CC[C@@H](O)[C@H](OC)C2)CC(=O)[C@H](C)/C=C(\C)[C@@H](O)[C@@H](OC)C(=O)[C@H](C)C[C@H](C)/C=C/C=C/C=C/1C` gave an IC50 of 1380 nM. Moreover, the MIC in the assay on Candida albicans [1] is 1.56 µg/mL (≈ 1.63 µM); with Candida albicans [12], “Weak”; with Candida albicans [13], “Weak”; in the assay with Candida albicans [14], ~100 µg/mL (≈ 104 µM); in the assay with Candida albicans [3], 1.56 µg/mL (≈ 1.63 µM); against Aspergillus niger [15] it was ~100 µg/mL (≈ 104 µM). Also, the MIC result is “Weak” with Candida albicans [16], 1.56 µg/mL (≈ 1.63 µM) with Candida tropicalis, 0.78 µg/mL (≈ 0.815 µM) against Nakaseomyces glabratus and 0.78 µg/mL (≈ 0.815 µM) in the assay with Pichia kudriavzevii.

In the case of `CO[C@H]1C[C@@H]2CC[C@@H](C)[C@@](O)(O2)C(=O)C(=O)N2CCCC[C@H]2C(=O)O[C@H]([C@H](C)C[C@@H]2CC[C@@H](OC(=O)N3CCNCC3)[C@H](OC)C2)CC(=O)[C@H](C)/C=C(\C)[C@@H](O)[C@@H](OC)C(=O)[C@H](C)C[C@H](C)CCCC/C=C/1C`, the MIC against Candida albicans [1], against Candida albicans [9], with Candida albicans [10], with Candida albicans [3], in the assay on Candida tropicalis and with Pichia kudriavzevii was > 100 µg/mL each time.

As for `CO[C@H]1C[C@@H]2CC[C@@H](C)[C@@](O)(O2)C(=O)C(=O)N2CCCC[C@H]2C(=O)O[C@H]([C@H](C)C[C@@H]2CC[C@@H](OC(=O)N3CCCCC3)[C@H](OC)C2)CC(=O)[C@H](C)/C=C(\C)[C@@H](O)[C@@H](OC)C(=O)[C@H](C)C[C@H](C)CCCC/C=C/1C`, the MIC in the assay on Candida albicans [1], in the assay with Candida albicans [9], in the assay with Candida albicans [10], with Candida albicans [3], against Candida tropicalis and in the assay on Pichia kudriavzevii was > 100 µg/mL each time.

Turning to `CO[C@@H]1C[C@H](C[C@@H](C)[C@@H]2CC(=O)[C@H](C)/C=C(\C)[C@@H](O)[C@@H](OC)C(=O)[C@H](C)C[C@H](C)/C=C/C=C/C=C(\C)[C@@H](N(O)C(=O)Oc3ccccc3)C[C@@H]3CC[C@@H](C)[C@@](O)(O3)C(=O)C(=O)N3CCCC[C@H]3C(=O)O2)CC[C@H]1O`, the IC50 in the assay filed under Homo sapiens turned out to be 1100 nM; in assay [2], 2.1 nM. Further, the MIC was 12.5 µg/mL (≈ 12.1 µM) against Candida albicans [1]; 25 µg/mL (≈ 24.1 µM) in the assay with Candida albicans [3]; ~100 µg/mL (≈ 96.6 µM) in the assay on Candida albicans [4]; “Weak” with Candida albicans [5]; “Weak” with Candida albicans [6]; 12.5 µg/mL (≈ 12.1 µM) in the assay on Candida tropicalis. For the same compound, the MIC with Aspergillus niger [7] was ~100 µg/mL (≈ 96.6 µM); in the assay with Candida albicans [8] it was “Weak”; in the assay on Nakaseomyces glabratus it was 1.56 µg/mL (≈ 1.51 µM); in the assay with Pichia kudriavzevii it was 1.56 µg/mL (≈ 1.51 µM).

Compound `CO[C@@H]1C[C@H](C[C@@H](C)[C@@H]2CC(=O)[C@H](C)/C=C(\C)[C@@H](O)[C@@H](OC)C(=O)[C@H](C)C[C@H](C)/C=C/C=C/C=C(\C)[C@H](N(O)C(C)=O)C[C@@H]3CC[C@@H](C)[C@@](O)(O3)C(=O)C(=O)N3CCCC[C@H]3C(=O)O2)CC[C@H]1O` showed an IC50 in the assay filed under Homo sapiens of 95 nM. Besides, the MIC is 6.25 µg/mL (≈ 6.53 µM) in the assay with Candida albicans [1]; “Weak” with Candida albicans [12]; “Weak” with Candida albicans [13]; ~100 µg/mL (≈ 104 µM) in the assay on Candida albicans [14]; 6.25 µg/mL (≈ 6.53 µM) in the assay on Candida albicans [3]; ~100 µg/mL (≈ 104 µM) in the assay with Aspergillus niger [15]. Moreover, the MIC entry with Candida albicans [16] is “Weak”; against Candida tropicalis, 6.25 µg/mL (≈ 6.53 µM); in the assay on Nakaseomyces glabratus, 1.56 µg/mL (≈ 1.63 µM); in the assay with Pichia kudriavzevii it was 3.12 µg/mL (≈ 3.26 µM).

In the assay listed under Homo sapiens, `CO[C@H]1C[C@@H]2CC[C@@H](C)[C@@](O)(O2)C(=O)C(=O)N2CCCC[C@H]2C(=O)O[C@H]([C@H](C)C[C@@H]2CCC(O)[C@H](OC)C2)CC(=O)[C@H](C)/C=C(\C)[C@@H](O)[C@@H](OC)C(=O)[C@H](C)C[C@H](C)CCCC/C=C/1C` (single isomer, unassigned; 3) gave an IC50 of 3400 nM. For the same compound, the MIC in the assay with Candida albicans [1] worked out at 1.56 µg/mL (≈ 1.7 µM); with Candida albicans [9] it was 1.56 µg/mL (≈ 1.7 µM); with Candida albicans [10], 1.56 µg/mL (≈ 1.7 µM); in the assay with Candida albicans [3] it was 1.56 µg/mL (≈ 1.7 µM); against Candida albicans [11], 0.78 µg/mL (≈ 0.849 µM); in the assay on Candida tropicalis, 1.56 µg/mL (≈ 1.7 µM). This compound also gave an MIC against Pichia kudriavzevii of 0.78 µg/mL (≈ 0.849 µM).

Consider `CO[C@H]1C[C@@H]2CC[C@@H](C)[C@@](O)(O2)C(=O)C(=O)N2CCCC[C@H]2C(=O)O[C@H]([C@H](C)C[C@@H]2CCC(O)[C@H](OC)C2)CC(=O)[C@H](C)/C=C(\C)[C@@H](O)[C@@H](OC)C(=O)[C@H](C)C[C@H](C)CCCC/C=C/1C` (single isomer, unassigned; 2), for which, in the assay listed under Homo sapiens, the IC50 is 1590 nM. Also, the minimal inhibitory concentration (MIC) with Candida albicans [1], with Candida albicans [9], against Candida albicans [10], with Candida albicans [3], with Candida albicans [11] and in the assay with Candida tropicalis was 1.56 µg/mL (≈ 1.7 µM) each time. Also, inhibition of growth against Pichia kudriavzevii (MIC) required 1.56 µg/mL (≈ 1.7 µM).

As to `CO[C@H]1C[C@@H]2CC[C@@H](C)[C@@](O)(O2)C(=O)C(=O)N2CCCC[C@H]2C(=O)O[C@H]([C@H](C)C[C@@H]2CC[C@@H](OC(=O)N3CCOCC3)[C@H](OC)C2)CC(=O)[C@H](C)/C=C(\C)[C@@H](O)[C@@H](OC)C(=O)[C@H](C)C[C@H](C)CCCC/C=C/1C`, the MIC in the assay with Candida albicans [1], in the assay with Candida albicans [9], against Candida albicans [10], against Candida albicans [3], in the assay with Candida tropicalis and in the assay with Pichia kudriavzevii was > 100 µg/mL throughout. Moreover, the 50% inhibitory concentration (IC50) in assay [2] was > 1000 nM.
